As a reminder, the pIC50 is the negative decadic logarithm of the IC50, by convention in mol/L. Broadly, the T/C is the ratio of treated to control. A word on the AUC: it is the area under the concentration-time curve, a measure of exposure. By fraction unbound is commonly meant free concentration divided by total concentration. The half-life is the time needed for the level to fall by half in the phase considered. A word on the solubility: it is how much of the substance goes into solution per volume.

The target of series [1] is Methionine aminopeptidase 1 (Homo sapiens, UniProt P53582).
Description: Inhibition of N-terminal MetAP1 (unknown origin)
A short description of series [2]: in vivo. The settings on record: mouse, faeces, iv.
Description: Drug recovery in iv dosed mouse feces
Series [3] relates to U-87 MG.
Description: Antitumour activity against human U87MG cells xenografted in nude CD-1 mouse assessed as tumor growth at 20 mg/kg, po administered daily for 14 days relative to control
The conditions of series [4]: mouse, in vivo, iv, 1 mg/kg.
A short description of series [5]: Drug recovery in monkey at 0.2 mg/kg, iv measured up to 72 hrs. The format is ADME, organism-based, Macaca mulatta. The settings on record: rhesus monkey, in vivo.
Series [6] is described as follows: in vitro. Particulars: human, plasma.
Description: Protein binding in human plasma assessed as unbound fraction
Series [7] is described as follows: in vivo. The settings on record: mouse, iv.
Description: Half life in iv dosed mouse
Series [8] in a line: physchem. Particulars: PBS buffer.
Description: Solubility of compound in PBS buffer
The nature of series [9]: Drug recovery in dog at 0.2 mg/kg, iv measured up to 72 hrs. The format is ADME, organism-based, Canis lupus familiaris. Particulars: in vivo.
A short description of series [10]: in vitro. The settings on record: mouse, plasma.
Description: Protein binding in mouse plasma assessed as unbound fraction
Series [11] relates to CAKI-1.
Description: Antitumour activity against human Caki1 cells xenografted in nude CD-1 mouse assessed as tumor growth at 25 mg/kg, po BID for 36 days relative to control

pIC50: −log10 of the molar value. Values after ≈ are worked out from the molar mass of the structure shown.

Consider `O=C(NCc1cc(F)cc(Cl)c1)[C@@]1(O)CCN(c2cnc3[nH]cc(Cl)c3c2)C1=O`, for which the negative logarithm of the IC50 (pIC50) in [1] is below 5.00. In [2], this compound registered a dose excreted of 1.5%.
For the compound `O=C(NCc1cc(F)cc(Cl)c1)[C@@]1(O)CCN(c2cnc3[nH]ccc3c2)C1=O`, in series [1], the pIC50 is below 5.00. Moreover, in series [3], the T/C is recorded as 45%. Moreover, the dose excreted in series [2] came to 2.3%.
As for `O=C(NCc1cc(F)cc(F)c1)[C@@]1(O)CCN(c2cnc3[nH]cc(Cl)c3c2)C1=O`, the pIC50 in series [1] was below 5.00. In series [2], the dose excreted came out at 2.7%.
Compound `CN1C(=O)CCc2cc(N3CC[C@](O)(C(=O)NCc4cc(F)cc(Cl)c4)C3=O)ccc21` gave a pIC50 in series [1] below 5.00.
In turn, `O=C(NCc1cc(F)cc(Cl)c1)[C@@]1(O)CCN(c2ccc3[nH]ccc3c2)C1=O` gave a pIC50 in [1] below 5.00. The compound also displayed a dose excreted in [2] below 1%.
In series [1], `O=C(NCc1cc(F)cc(F)c1)[C@@]1(O)CCN(c2ccc3[nH]ncc3c2)C1=O` showed a pIC50 below 5.00. Further, the dose excreted in [2] is below 1%.
With `CCNC(=O)c1cc2cc(N3CC[C@](O)(C(=O)NCc4cc(F)cc(Cl)c4)C3=O)ccc2[nH]1`, the pIC50 in [1] was below 5.00.
Consider `O=C1CCc2cc(N3CC[C@](O)(C(=O)NCc4ccc(F)c(Cl)c4F)C3=O)ccc2N1`, for which the pIC50 in [1] was below 5.00.
Regarding `O=C1CCc2cc(N3CC[C@](O)(C(=O)NCc4cc(F)cc(Cl)c4F)C3=O)ccc2N1`, in [1], the pIC50 is below 5.00.
In [1], `O=C1CCc2cc(N3CC[C@](O)(C(=O)NCc4c(F)cccc4Cl)C3=O)ccc2N1` had a pIC50 below 5.00.
Compound `O=C1CCc2cc(N3CC[C@](O)(C(=O)NCc4cccc(F)c4F)C3=O)ccc2N1` had a pIC50 in series [1] below 5.00.
Regarding `O=C1CCc2cc(N3CC[C@](O)(C(=O)NCc4c(F)ccc(F)c4F)C3=O)ccc2N1`, the negative-log IC50 (pIC50) in series [1] was below 5.00.
Take `NCCCNC(=O)c1cc2cc(N3CC[C@](O)(C(=O)NCc4cc(F)cc(Cl)c4)C3=O)ccc2[nH]1`: the negative-log IC50 (pIC50) in [1] is below 5.00.
Turning to `O=C1CCc2cc(N3CC[C@](O)(C(=O)NCc4cc(F)cc(Cl)c4)C3=O)ccc2N1`, in series [4], the AUC was 19 ng·h/mL. Further, the Drug recovery entry in [5] and in series [9] was “Active” throughout. Besides, the fraction unbound in series [6] was 0.023; in series [10] it was 0.017. This compound showed a half-life in [7] of 3 h. In [1], this compound had a pIC50 below 5.00. The compound further displayed a solubility in series [8] of 90 µg/mL (≈ 208 µM). In addition, in series [3], the T/C was 45%. This compound also yielded a dose excreted in series [2] of 23%.
Consider `O=C1CCc2cc(N3CC[C@](O)(C(=O)NCc4cc(F)ccc4Cl)C3=O)ccc2N1`, for which the pIC50 in [1] is below 5.00.
Turning to `Cc1cc2cc(N3CC[C@](O)(C(=O)NCc4cc(F)cc(Cl)c4)C3=O)ccc2[nH]1`, the pIC50 in series [1] is below 5.00.
Same read-out and setting: then `O=C1CCc2cc(N3CC[C@](O)(C(=O)NCc4cccc(Cl)c4F)C3=O)ccc2N1`, with below 5.00; and `O=C1CCc2cc(N3CC[C@](O)(C(=O)NCc4c(F)cccc4F)C3=O)ccc2N1`, with below 5.00.
In [1], `O=C1CCc2cc(N3CC[C@](O)(C(=O)NCc4cc(F)c(F)c(F)c4)C3=O)ccc2N1` had a pIC50 below 5.00.
Compound `O=C1CCc2cc(N3CC[C@](O)(C(=O)NCc4cc(F)cc(F)c4)C3=O)ccc2N1` had a pIC50 in [1] below 5.00.
Compound `O=C(NCc1cc(F)cc(Cl)c1)[C@@]1(O)CCN(c2ccc3[nH]ncc3c2)C1=O` showed a pIC50 in series [1] below 5.00. This compound also came in with a dose excreted in series [2] below 1%.
The compound `O=C1CCc2cc(N3CC[C@](O)(C(=O)NCc4cc(F)cc(Cl)c4)C3=O)cc(F)c2N1` had a pIC50 in [1] below 5.00.
On to `O=C1CCc2cc(N3CC[C@](O)(C(=O)NCc4cc(F)cc(F)c4F)C3=O)ccc2N1`, for which, in series [1], the negative logarithm of the IC50 (pIC50) was below 5.00.
With `CS(=O)(=O)Nc1cccc(N2CC[C@](O)(C(=O)NCc3cc(F)cc(Cl)c3)C2=O)c1`, the pIC50 in series [1] was below 5.00.
`O=C(NCc1cc(F)cc(F)c1)[C@@]1(O)CCN(c2cnc3[nH]ccc3c2)C1=O` showed a pIC50 in [1] below 5.00. This compound also had a dose excreted in series [2] below 1%. For the same compound, in series [11], the T/C was found to be 39%.

Source of the values: ChEMBL document CHEMBL4414652, “Identification of Methionine Aminopeptidase-2 (MetAP-2) Inhibitor M8891: A Clinical Compound for the Treatment of Cancer” (J Med Chem, 2019).
